Experimental data taken from patent US20160075753A1, “MODULATION OF REGULATORY T CELL FUNCTION VIA PROTEIN KINASE C-eta” (LA JOLLA INSTITUTE FOR ALLERGY AND IMMUNOLOGY, priority 2013, published 2016).

System: interaction between CTLA-4 and PKCη
Assay: CTLA-4 immunoprecipitation and immunoblotting for PKCη in cotransfected JTAg cells
Assay type: cell-based, human
Settings: JTAg cells cotransfected with WT Ctla4 and Xpress-tagged WT PKCη; PP2 10 μM for 30 min before anti-CD3 mAbs + B7-Fc stimulation for 5 min; FIG. 12
Experimental: WT Ctla4 were cotransfected with Xpress-tagged WT PKCη into JTAg cells. Cells were treated with vehicle (DMSO), PP2 (10 μM) or PP3 (10 μM) for 30 min prior to stimulation with anti-CD3 mAbs+B7-Fc recombinant protein for 5 min Cell lysates were immunoprecipitated with CTLA-4 mAb and then immunoblotted with the indicated Abs.
Simian virus 40 large T antigen-transfected human leukemic Jurkat T cells (JTAg) and MCC-specific hybridoma T cells were described previously. JTAg cells in logarithmic growth phase were transfected with plasmid DNAs by electroporation and incubated for 48 hours. Transfected cells were stimulated with OKT3 mAb and recombinant B7-Fc in the presence of cross-linking Ab for 5 min. Cell lysis in 1% digitonin lysis buffer (50 mM Tris-HCl, 50 mM NaCl, 5 mM EDTA), immunoprecipitation and Western blotting were carried out as previously described.
To map the important motif within the cytoplasmic tail of CTLA-4 that is used in the interaction with PKCη, the membrane proximal positively charged motif (K188, 191KKR193), the proline-rich motif (P205, 206, 209), and tyrosine residues (Y201 or Y218) were mutated, and the corresponding mutants examined for their ability to associate with PKCη. […] This positively charged motif is highly conserved throughout evolution from fish to primates (FIG. 10).

In the case of `CC(C)(C)n1nc(-c2ccc(Cl)cc2)c2c(N)ncnc21` [PP2], the “interaction between CTLA-4 and PKCη (co-immunoprecipitation)” value is reported as “not affected”.
